From paper doi:10.1101/2020.07.01.182642v1 (biorxiv, 2020)

How the values were obtained:
CAMKK1 = CAMKK1 (Homo sapiens, UniProt Q8N5S9); conditions: binder
ADRBK2 = ADRBK2 (Homo sapiens, UniProt P35626); conditions: binder
ABL2 = ABL2 (Homo sapiens, UniProt P42684); conditions: binder
FGR = FGR (Homo sapiens, UniProt P09769); conditions: binder
NEK9 = NEK9 (Homo sapiens, UniProt Q8TD19); conditions: binder
CDKL3 = CDKL3 (Homo sapiens, UniProt Q8IVW4); conditions: binder
BMPR1A = BMPR1A (Homo sapiens, UniProt P36894); conditions: binder
Sequence of BMPR1A (P36894 whole entry): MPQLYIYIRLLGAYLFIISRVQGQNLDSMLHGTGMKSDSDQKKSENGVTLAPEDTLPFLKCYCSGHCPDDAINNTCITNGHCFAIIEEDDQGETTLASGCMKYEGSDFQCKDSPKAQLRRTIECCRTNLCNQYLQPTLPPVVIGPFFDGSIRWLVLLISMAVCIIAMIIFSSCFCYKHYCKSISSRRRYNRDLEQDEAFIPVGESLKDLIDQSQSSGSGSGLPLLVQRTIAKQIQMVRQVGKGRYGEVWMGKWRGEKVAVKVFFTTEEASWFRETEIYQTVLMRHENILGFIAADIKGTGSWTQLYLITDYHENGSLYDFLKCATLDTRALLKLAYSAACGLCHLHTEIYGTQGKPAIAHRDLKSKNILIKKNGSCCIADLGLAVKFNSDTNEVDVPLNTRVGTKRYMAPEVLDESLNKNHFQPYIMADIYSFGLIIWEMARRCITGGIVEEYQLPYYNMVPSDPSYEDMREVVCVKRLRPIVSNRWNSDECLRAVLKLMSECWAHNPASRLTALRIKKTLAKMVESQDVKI

OXSR1 = OXSR1 (Homo sapiens, UniProt O95747); conditions: binder
Sequence of OXSR1 (O95747 whole entry): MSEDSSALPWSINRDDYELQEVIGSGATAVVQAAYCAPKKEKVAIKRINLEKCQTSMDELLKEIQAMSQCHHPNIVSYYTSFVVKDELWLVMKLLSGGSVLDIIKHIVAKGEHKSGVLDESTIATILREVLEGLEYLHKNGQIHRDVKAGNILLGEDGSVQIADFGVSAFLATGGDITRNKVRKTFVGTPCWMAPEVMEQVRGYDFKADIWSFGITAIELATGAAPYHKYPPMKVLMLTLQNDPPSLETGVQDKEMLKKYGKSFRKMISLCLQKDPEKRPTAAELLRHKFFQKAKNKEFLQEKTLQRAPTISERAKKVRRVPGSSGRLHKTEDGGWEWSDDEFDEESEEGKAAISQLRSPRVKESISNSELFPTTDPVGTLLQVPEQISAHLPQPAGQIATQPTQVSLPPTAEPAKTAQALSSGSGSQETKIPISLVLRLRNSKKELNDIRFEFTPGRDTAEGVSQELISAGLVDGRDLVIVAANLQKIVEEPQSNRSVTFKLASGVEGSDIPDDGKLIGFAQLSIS

DYRK1A = DYRK1A (Homo sapiens, UniProt Q13627); conditions: binder
CLK1 (full-length) [1] = molecular target: CLK1 (full-length) (Homo sapiens, UniProt P49759, V324A); assay: cell-based; design: species or system HEK293T
Sequence of CLK1 (full-length) (Homo sapiens, UniProt P49759, V324A) (P49759 whole entry V324A): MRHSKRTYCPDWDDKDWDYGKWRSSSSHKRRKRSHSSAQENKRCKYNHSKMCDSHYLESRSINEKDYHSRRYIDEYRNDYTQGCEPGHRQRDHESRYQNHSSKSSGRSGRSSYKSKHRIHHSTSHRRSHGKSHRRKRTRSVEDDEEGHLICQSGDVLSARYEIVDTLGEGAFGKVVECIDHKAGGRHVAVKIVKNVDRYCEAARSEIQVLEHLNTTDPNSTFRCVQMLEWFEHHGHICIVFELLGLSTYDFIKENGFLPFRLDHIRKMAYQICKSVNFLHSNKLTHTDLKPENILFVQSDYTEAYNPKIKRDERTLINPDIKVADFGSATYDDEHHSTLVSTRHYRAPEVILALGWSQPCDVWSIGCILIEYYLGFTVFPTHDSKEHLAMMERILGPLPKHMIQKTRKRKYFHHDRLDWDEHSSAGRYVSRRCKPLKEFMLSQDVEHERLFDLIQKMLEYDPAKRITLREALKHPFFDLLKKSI

CLK1 (full-length) [2] = molecular target: CLK1 (full-length) (Homo sapiens, UniProt P49759); assay: cell-based; design: species or system HEK293T
Sequence of CLK1 (full-length) (Homo sapiens, UniProt P49759) (P49759 whole entry): as the sequence (P49759 whole entry V324A) above, with A324V counted along it

MYO3A = MYO3A (Homo sapiens, UniProt Q8NEV4); conditions: binder
Sequence of MYO3A (Q8NEV4 whole entry): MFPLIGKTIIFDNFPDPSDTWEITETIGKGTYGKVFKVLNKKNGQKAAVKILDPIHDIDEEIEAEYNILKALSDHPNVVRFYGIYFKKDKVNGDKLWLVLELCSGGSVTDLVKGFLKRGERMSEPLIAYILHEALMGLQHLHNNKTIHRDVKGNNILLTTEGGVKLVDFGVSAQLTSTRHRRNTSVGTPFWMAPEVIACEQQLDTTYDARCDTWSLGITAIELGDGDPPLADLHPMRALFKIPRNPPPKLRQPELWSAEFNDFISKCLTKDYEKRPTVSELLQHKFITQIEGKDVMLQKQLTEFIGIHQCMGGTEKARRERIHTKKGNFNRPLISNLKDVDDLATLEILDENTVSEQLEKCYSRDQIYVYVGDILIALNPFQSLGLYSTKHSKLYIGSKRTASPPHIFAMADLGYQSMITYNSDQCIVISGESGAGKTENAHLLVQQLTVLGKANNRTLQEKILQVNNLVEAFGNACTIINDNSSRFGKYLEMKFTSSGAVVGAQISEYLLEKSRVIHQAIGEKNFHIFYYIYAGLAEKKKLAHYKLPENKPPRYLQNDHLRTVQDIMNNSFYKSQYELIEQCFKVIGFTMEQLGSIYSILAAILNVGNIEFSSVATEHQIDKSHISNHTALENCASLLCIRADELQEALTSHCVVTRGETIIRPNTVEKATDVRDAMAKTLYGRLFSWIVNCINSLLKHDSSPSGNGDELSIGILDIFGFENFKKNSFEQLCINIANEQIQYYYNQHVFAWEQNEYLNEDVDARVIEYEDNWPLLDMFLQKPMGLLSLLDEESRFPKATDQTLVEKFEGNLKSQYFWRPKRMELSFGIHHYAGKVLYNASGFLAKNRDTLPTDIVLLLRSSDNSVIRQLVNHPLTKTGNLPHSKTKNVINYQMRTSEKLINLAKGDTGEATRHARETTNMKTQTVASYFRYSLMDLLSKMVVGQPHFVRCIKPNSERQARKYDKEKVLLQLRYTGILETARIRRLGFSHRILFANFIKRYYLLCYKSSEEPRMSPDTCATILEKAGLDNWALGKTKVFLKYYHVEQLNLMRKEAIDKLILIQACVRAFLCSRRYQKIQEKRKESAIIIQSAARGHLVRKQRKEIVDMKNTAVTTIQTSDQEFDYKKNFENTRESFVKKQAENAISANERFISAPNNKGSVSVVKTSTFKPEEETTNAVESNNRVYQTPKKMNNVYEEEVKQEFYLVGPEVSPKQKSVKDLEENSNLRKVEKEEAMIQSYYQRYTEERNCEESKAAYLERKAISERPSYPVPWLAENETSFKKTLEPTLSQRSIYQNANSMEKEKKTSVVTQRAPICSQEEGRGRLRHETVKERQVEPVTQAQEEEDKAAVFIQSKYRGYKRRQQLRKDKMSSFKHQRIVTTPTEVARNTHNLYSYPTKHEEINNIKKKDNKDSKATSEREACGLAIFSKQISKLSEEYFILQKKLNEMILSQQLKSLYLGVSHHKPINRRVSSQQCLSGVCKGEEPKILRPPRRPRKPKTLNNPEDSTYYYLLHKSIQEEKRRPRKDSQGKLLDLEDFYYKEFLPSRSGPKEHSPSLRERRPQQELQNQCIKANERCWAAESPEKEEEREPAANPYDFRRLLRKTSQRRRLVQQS

Sequence of CAMKK1 (Q8N5S9 whole entry): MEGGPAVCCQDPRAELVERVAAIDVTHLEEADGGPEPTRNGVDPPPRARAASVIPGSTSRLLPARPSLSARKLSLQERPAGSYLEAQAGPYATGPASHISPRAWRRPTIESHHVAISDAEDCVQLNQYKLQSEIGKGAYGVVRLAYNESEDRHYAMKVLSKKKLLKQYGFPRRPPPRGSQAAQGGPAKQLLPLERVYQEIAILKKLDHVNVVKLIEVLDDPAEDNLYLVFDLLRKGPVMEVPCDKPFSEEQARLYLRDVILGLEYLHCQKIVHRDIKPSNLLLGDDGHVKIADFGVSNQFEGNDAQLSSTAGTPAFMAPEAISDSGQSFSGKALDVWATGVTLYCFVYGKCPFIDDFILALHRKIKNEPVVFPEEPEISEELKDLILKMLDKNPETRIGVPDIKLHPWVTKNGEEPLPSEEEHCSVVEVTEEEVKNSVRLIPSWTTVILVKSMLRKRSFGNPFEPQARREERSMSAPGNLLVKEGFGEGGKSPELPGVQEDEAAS
Sequence of FGR (P09769 whole entry): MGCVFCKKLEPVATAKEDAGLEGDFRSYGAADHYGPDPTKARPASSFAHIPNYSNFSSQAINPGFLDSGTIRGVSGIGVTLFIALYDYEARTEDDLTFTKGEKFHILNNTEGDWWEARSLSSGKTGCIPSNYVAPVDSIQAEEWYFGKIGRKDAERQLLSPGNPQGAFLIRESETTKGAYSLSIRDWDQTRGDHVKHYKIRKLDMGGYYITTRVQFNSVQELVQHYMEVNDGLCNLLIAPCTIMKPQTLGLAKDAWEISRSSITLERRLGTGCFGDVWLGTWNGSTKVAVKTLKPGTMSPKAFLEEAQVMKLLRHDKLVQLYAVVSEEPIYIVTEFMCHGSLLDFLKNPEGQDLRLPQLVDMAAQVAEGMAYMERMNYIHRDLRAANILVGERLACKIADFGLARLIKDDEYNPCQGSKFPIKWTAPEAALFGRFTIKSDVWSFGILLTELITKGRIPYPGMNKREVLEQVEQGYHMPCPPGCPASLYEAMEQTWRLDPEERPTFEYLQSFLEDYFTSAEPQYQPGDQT
Sequence of CDKL3 (Q8IVW4 whole entry): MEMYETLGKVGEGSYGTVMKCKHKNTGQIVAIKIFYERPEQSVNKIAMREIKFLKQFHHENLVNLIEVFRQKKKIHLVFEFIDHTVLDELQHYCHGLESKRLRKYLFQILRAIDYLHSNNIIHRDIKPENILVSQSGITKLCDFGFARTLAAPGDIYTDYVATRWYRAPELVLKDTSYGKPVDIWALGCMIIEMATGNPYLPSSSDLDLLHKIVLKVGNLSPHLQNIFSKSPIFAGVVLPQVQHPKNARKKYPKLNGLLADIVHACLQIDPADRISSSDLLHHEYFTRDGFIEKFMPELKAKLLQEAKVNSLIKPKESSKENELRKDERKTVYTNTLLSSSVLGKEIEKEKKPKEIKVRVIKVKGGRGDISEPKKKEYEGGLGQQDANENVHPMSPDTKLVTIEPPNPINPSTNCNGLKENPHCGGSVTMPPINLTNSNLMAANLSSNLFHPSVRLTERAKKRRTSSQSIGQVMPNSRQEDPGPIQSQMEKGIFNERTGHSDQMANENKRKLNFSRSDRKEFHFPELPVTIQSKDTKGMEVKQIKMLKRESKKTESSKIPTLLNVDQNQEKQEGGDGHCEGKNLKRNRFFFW

## CCN1/C(=C/C(C)=O)Sc2ccc(OC)cc21 [compound 2, TG003]
CAMKK1
  ΔTm inhibitor 2: 0.0 °C
ADRBK2
  ΔTm inhibitor 2: -0.2 °C
ABL2
  ΔTm inhibitor 2: -0.5 °C
FGR
  ΔTm inhibitor 2: -0.2 °C
NEK9
  ΔTm inhibitor 2: 0.5 °C
CDKL3
  ΔTm inhibitor 2: 0.1 °C

## CC(=O)c1cccc(-c2cnc3ccc(NCC4CC4)nn23)c1 [compound 1, K00135]
BMPR1A
  ΔTm inhibitor 1: 10.9 °C
OXSR1
  ΔTm inhibitor 1: 0.5 °C
DYRK1A
  ΔTm inhibitor 1: 3.6 °C
CLK1 (full-length) [1]
  Ki: 512 ± 100 nM
CLK1 (full-length) [2]
  Ki: 229 ± 100 nM

## Nc1nccc(-c2ccc3noc(-c4ccc(Cl)cc4)c3c2)n1 [compound 4, K00972]
MYO3A
  ΔTm inhibitor 4: 0.2 °C
